Measured values from PMC11726654, “Discovery of MDI-114215: A Potent and Selective LIMK Inhibitor To Treat Fragile X Syndrome” (Journal of Medicinal Chemistry, 2024).
Converted amounts (≈) assume the structure as drawn.

Key:
Microsomal stability [1] = conditions: for microsomal CLint at 2 μM / microsomal CLint at 0.5 h, 2 µM: rat, microsomes, pH 7.4; for Microsomal CLint Rat: rat microsomes, 2 μM compound
Thermodynamic solubility = conditions: PBS, pH 7
[2] = In vivo PK, p.o./i.p. dosing; conditions: male, Sprague-Dawley, rat, plasma
In vivo PK, i.v. dosing = conditions: male, Sprague-Dawley, rat, plasma; for CLint scaled: intravenous; for AUC(0-inf) at 1 h / Vd at 1 h / half-life at 1 h: iv
Protocol: A satellite group of three animals were also administered i.v. test compound (dosed at 1 mg/kg in 10% DMSO/20% Cremophor/70% saline) and after 1 h, the animals culled and brain samples immediately prepared by homogenization in H2O and protein precipitation in MeCN. Bioanalysis on plasma and brain samples were performed using a UHPLC-tandem mass spectrometry using electrospray ionization.

CNS penetration study = conditions: male, Sprague-Dawley, rat, brain/plasma, iv, 1 mg/kg
Microsomal stability [3] = conditions: human, microsomes, pH 7.4
[4] = Unbound fraction in brain and plasma; assay type: in vitro ADME; conditions: for fubrain: unbound fraction in brain; for fuplasma: unbound fraction in plasma
LIMK2 = LIMK2 (Homo sapiens, UniProt P53671); experiment: RapidFire mass spectrometry kinase assay (cofilin phosphorylation); assay type: biochemical; conditions: non-phosphorylated LIMK2; mean ± SEM; read-out: Enzymatic (RapidFire) pIC50 LIMK2 (converted)
LIMK1 = LIMK1 (Homo sapiens, UniProt P53667); experiment: as above; assay type: biochemical; conditions: non-phosphorylated LIMK1; mean ± SEM; read-out: Enzymatic (RapidFire) pIC50 LIMK1 (converted)
[5] = Caco-2 permeability and efflux; conditions: human, Caco-2
[6] = tested on: p-cofilin Ser3 levels in SH-SY5Y cells; experiment: AlphaLISA SureFire p-cofilin assay; assay type: cell-based; conditions: Homo sapiens, 2 h, read-out: alphaLISA pIC50 p-cofilin (converted)
Protocol: The AlphaLISA assay for detection of p-cofilin Ser3 levels was followed as previously described.[14] […] Cells were placed in the incubator for 2 h, after which the media was removed and the cells were lysed using 50 μL AlphaLISA 1× lysis buffer (PerkinElmer, USA) containing protease inhibitor cocktail (Sigma/Merck, Dorset, UK) and Pierce phosphatase inhibitor cocktail (Thermo Fisher Scientific, UK). The cell lysate was then transferred to a clean, flat-bottom, white 384-well plate, to which 5 μL/well of acceptor bead solution consisting of Reaction buffer 1, Reaction buffer 2, Activation Buffer and Acceptor Beads from pCofilin SureFire Ultra assay kit (PerkinElmer, USA, cat# ALSU-PCOF-A500) was added under dim light. After incubation at RT for 1 h, 5 μL/well of donor solution consisting of Dilution Buffer and Donor beads was added. The plate was read on a Pherastar reader (BMD Labtech Ltd., Aylesbury, UK) using an AlphaLISA cartridge and AlphaLISA plate settings.

Caco-2 = Caco-2 permeability and efflux; conditions: efflux ratio
[7] = tested on: p-cofilin levels in WT and Fmr1 KO mouse brain slices; experiment: Western blot of p-cofilin in treated hippocampal brain slices; conditions: 3 μM, 30 min, WT and Fmr1 KO (P7–9) brain slices
Protocol: Hippocampal slices were obtained from neonatal (postnatal days 7–9) wild type (WT) and Fmr1 KO mice originally supplied by Jackson Laboratories. […] Mice for experimentation were killed by cervical dislocation. […] The temporal aspects of the brain were trimmed, bisected, then glued to a metal plate, such that the midline was uppermost and horizontal. […] Each individual sample was suspended in 300 μL of buffer and lysed by pipetting on ice. Samples were centrifuged to pellet at 17,000g for 30 min at 4 °C. Protein was quantified using Biorad DC protein assay (Biorad, 5000112) and read on a PheraStar plate reader (BMG Labtech) and standardized to 2 mg/mL each sample.
Sample loading buffer was added to each sample at 1:4 concentrations and boiled for 5 min prior to use. […] Membranes were then blocked in 5% BSA TBST for 1 h at rt and then placed into LIMK1, p-cofilin, cofilin and actin primary antibody solutions at 4 °C overnight. The following day, membranes were washed 3× in TBST solution before being placed in appropriate secondary antibody solutions for 1 h at room temperature. Following a final 3 washes in TBST, the membranes were developed using ClarityMax ECL substrate (Biorad, UK) at a 1:1 ratio. The ECL solution was allowed to develop on the membrane for 5 min prior to visualizing using the CHEMIDOC imaging system (Biorad, UK). […]

Chain of LIMK2 (P53671 whole entry): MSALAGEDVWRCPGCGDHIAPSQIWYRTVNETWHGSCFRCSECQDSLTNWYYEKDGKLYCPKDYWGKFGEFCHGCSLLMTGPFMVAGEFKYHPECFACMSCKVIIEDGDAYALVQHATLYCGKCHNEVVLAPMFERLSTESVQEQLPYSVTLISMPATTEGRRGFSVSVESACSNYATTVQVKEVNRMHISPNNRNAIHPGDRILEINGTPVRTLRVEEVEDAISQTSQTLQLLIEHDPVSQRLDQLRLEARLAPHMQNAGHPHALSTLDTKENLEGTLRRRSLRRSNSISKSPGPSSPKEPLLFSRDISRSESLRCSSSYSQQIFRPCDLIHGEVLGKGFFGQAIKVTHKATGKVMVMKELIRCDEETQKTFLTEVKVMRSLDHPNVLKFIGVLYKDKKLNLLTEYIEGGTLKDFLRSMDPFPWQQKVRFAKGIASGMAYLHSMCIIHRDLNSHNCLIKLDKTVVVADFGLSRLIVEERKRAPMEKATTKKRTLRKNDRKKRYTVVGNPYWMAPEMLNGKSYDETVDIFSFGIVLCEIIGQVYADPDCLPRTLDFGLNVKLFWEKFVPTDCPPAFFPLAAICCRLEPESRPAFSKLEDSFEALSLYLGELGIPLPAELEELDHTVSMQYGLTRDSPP
Chain of LIMK1 (P53667 whole entry): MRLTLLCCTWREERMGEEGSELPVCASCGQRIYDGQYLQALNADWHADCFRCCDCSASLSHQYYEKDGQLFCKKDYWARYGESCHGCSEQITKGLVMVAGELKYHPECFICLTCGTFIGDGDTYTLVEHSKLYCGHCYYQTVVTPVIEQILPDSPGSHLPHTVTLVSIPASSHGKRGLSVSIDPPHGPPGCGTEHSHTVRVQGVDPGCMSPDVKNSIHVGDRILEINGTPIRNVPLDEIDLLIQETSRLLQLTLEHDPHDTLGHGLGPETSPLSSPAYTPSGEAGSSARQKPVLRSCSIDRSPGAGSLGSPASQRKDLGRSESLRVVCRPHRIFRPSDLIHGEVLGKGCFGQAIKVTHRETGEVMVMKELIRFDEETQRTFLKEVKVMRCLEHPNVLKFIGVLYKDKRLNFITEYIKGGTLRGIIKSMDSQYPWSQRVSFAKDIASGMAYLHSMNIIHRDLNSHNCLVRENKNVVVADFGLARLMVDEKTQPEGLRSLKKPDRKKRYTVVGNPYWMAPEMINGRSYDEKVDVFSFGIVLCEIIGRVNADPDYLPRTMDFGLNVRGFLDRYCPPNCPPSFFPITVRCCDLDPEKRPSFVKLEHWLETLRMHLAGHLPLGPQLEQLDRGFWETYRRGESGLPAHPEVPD

CCCCN(Cc1ccc2[nH]ccc2c1)C(=O)c1ccc(S(=O)(=O)Nc2ccccc2)cc1 [Compound 51, N-Butyl-N-(1H-indol-5-ylmethyl)-4-(phenylsulfamoyl)benzamide]
microsomal CLint at 2 μM (Microsomal stability [1]): 357 µL/min/mg
solubility at 24 h (Thermodynamic solubility): 3 µM (≈ 1.38 µg/mL)
Cmax at 1 h ([2]; po, 3 mg/kg): 4.6 ng/mL
Tmax at 1 h ([2]; po, 3 mg/kg): 60 min
bioavailability at 1 h ([2]; po, 3 mg/kg): 2%
CLint scaled (In vivo PK, i.v. dosing): 67.8 mL/min/kg
AUC(0-inf) at 1 h (In vivo PK, i.v. dosing; 1 mg/kg): 247 ng·h/mL
Vd at 1 h (In vivo PK, i.v. dosing; 1 mg/kg): 2.3 L/kg
half-life at 1 h (In vivo PK, i.v. dosing; 1 mg/kg): 30 min
Kp at 1 h (CNS penetration study): 0.4
Kp uu at 1 h (CNS penetration study): < 0.03
microsomal CLint at 2 μM (Microsomal stability [3]): 121 µL/min/mg
fubrain [4]: < 0.1%
fuplasma [4]: 1.3%

N#CCCN(Cc1ccncc1)C(=O)c1ccc(S(=O)(=O)Nc2ccccc2)cc1 [Compound 55, N-(2-Cyanoethyl)-4-(phenylsulfamoyl)-N-(4-pyridylmethyl)benzamide]
microsomal CLint at 2 μM (Microsomal stability [1]): 81 µL/min/mg
CLint scaled (In vivo PK, i.v. dosing): 16.5 mL/min/kg
AUC(0-inf) at 1 h (In vivo PK, i.v. dosing; 0.2 mg/kg): 217 ng·h/mL
Vd at 1 h (In vivo PK, i.v. dosing; 0.2 mg/kg): 0.4 L/kg
half-life at 1 h (In vivo PK, i.v. dosing; 0.2 mg/kg): 18 min
microsomal CLint at 2 μM (Microsomal stability [3]): 32 µL/min/mg

C[C@@H](c1ccccc1)N(CC1CC1)C(=O)c1ccc(S(=O)(=O)Nc2ccccc2)cc1 [Compound 64, (S)-N-(Cyclopropylmethyl)-N-(1-phenylethyl)-4-(N-phenylsulfamoyl)benzamide]
IC50 (LIMK2): 100 nM
Microsomal CLint Rat (Microsomal stability [1]): Rapid
IC50 (LIMK1): 240 nM
microsomal CLint at 2 μM (Microsomal stability [3]): 774 µL/min/mg

C[C@H](c1ccccc1)N(CC1CC1)C(=O)c1ccc(S(=O)(=O)Nc2ccccc2)cc1 [Compound 65, (R)-N-(Cyclopropylmethyl)-N-(1-phenylethyl)-4-(N-phenylsulfamoyl)benzamide]
IC50 (LIMK2): 1070 nM
Microsomal CLint Rat (Microsomal stability [1]): Rapid
IC50 (LIMK1): 4900 nM
microsomal CLint at 2 μM (Microsomal stability [3]): 419 µL/min/mg

O=C(c1ccc(S(=O)(=O)Nc2ccccc2)cc1)N(Cc1ccc(F)cn1)CC1CC1 [Compound 71, N-(Cyclopropylmethyl)-N-((5-fluoropyridin-2-yl)methyl)-4-(N-phenylsulfamoyl)benzamide]
Microsomal CLint Rat (Microsomal stability [1]): Rapid
Papp [5]: 21.1 ×10⁻⁶ cm/s
microsomal CLint at 0.5 h, 2 µM (Microsomal stability [3]): 282 µL/min/mg

O=C(c1ccc(S(=O)(=O)Nc2ccccc2)cc1)N(Cc1ccc(NCCO)cn1)CC1CC1 [Compound 74, N-(Cyclopropylmethyl)-N-[[5-(2-hydroxyethylamino)-2-pyridyl]methyl]-4-(phenylsulfamoyl)benzamide]
microsomal CLint at 0.5 h, 2 µM (Microsomal stability [1]): 114 µL/min/mg
Cmax at 1 h ([2]; po, 3 mg/kg): 50.8 ng/mL
Tmax at 1 h ([2]; po, 3 mg/kg): 24 min
bioavailability at 1 h ([2]; po, 3 mg/kg): 15%
CLint scaled (In vivo PK, i.v. dosing): 51.9 mL/min/kg
AUC(0-inf) at 1 h (In vivo PK, i.v. dosing; 1 mg/kg): 322 ng·h/mL
Vd at 1 h (In vivo PK, i.v. dosing; 1 mg/kg): 1.8 L/kg
half-life at 1 h (In vivo PK, i.v. dosing; 1 mg/kg): 42 min
microsomal CLint at 0.5 h, 2 µM (Microsomal stability [3]): 42 µL/min/mg
IC50 [6]: 661 nM
fubrain [4]: 2.8%
fuplasma [4]: 8.0%

COCCNc1ccc(CN(CC2CC2)C(=O)c2ccc(S(=O)(=O)Nc3ccccc3)cc2)nc1 [Compound 75, N-(Cyclopropylmethyl)-N-[[5-(2-methoxyethylamino)-2-pyridyl]methyl]-4-(phenylsulfamoyl)benzamide]
microsomal CLint at 0.5 h, 2 µM (Microsomal stability [1]): 327 µL/min/mg
solubility at 24 h (Thermodynamic solubility): 28 µM (≈ 13.8 µg/mL)
Cmax at 1 h ([2]; ip, 10 mg/kg): 134 ng/mL
Tmax at 1 h ([2]; ip, 10 mg/kg): 18 min
bioavailability ([2]; ip, 10 mg/kg): 55%
Cmax at 1 h ([2]; po, 3 mg/kg): 16.8 ng/mL
Tmax at 1 h ([2]; po, 3 mg/kg): 24 min
bioavailability at 1 h ([2]; po, 3 mg/kg): 13%
CLint scaled (In vivo PK, i.v. dosing): 374 mL/min/kg
AUC(0-inf) at 1 h (In vivo PK, i.v. dosing; 0.5 mg/kg): 22.6 ng·h/mL
Vd at 1 h (In vivo PK, i.v. dosing; 0.5 mg/kg): 10.9 L/kg
half-life at 1 h (In vivo PK, i.v. dosing; 0.5 mg/kg): 24 min
Papp [5]: 8.3 ×10⁻⁶ cm/s
microsomal CLint at 0.5 h, 2 µM (Microsomal stability [3]): 175 µL/min/mg
IC50 [6]: 77.6 nM
fubrain [4]: 2.2%
fuplasma [4]: 4.7%

O=C(c1ccc(S(=O)(=O)Nc2ccccc2)cc1)N(Cc1ccc(NC2COC2)cn1)CC1CC1 [Compound 76, N-(Cyclopropylmethyl)-N-[[5-(oxetan-3-ylamino)-2-pyridyl]methyl]-4-(phenylsulfamoyl)benzamide]
microsomal CLint at 0.5 h, 2 µM (Microsomal stability [1]): 22 µL/min/mg
Papp [5]: 1.7 ×10⁻⁶ cm/s
microsomal CLint at 0.5 h, 2 µM (Microsomal stability [3]): 71 µL/min/mg

CN(CCO)c1ccc(CN(CC2CC2)C(=O)c2ccc(S(=O)(=O)Nc3ccccc3)cc2)nc1 [Compound 77, N-(Cyclopropylmethyl)-N-[[5-[2-hydroxyethyl(methyl)amino]-2-pyridyl]methyl]-4-(phenylsulfamoyl)benzamide]
Microsomal CLint Rat (Microsomal stability [1]): Rapid
Papp [5]: 0.5 ×10⁻⁶ cm/s
microsomal CLint at 2 μM (Microsomal stability [3]): 109 µL/min/mg

O=C(c1ccc(S(=O)(=O)Nc2ccccc2)cc1)N(Cc1ccc(CCc2nnn[nH]2)cn1)CC1CC1 [Compound 79, N-(Cyclopropylmethyl)-4-(phenylsulfamoyl)-N-[[5-[2-(1H-tetrazol-5-yl)ethyl]-2-pyridyl]methyl]benzamide]
microsomal CLint at 2 μM (Microsomal stability [1]): 12 µL/min/mg
Papp [5]: 0.1 ×10⁻⁶ cm/s
Caco-2 ER (Caco-2): 103
microsomal CLint at 2 μM (Microsomal stability [3]): 22 µL/min/mg

Cc1nc(CN(CC2CC2)C(=O)c2ccc(S(=O)(=O)Nc3ccccc3)cc2)ccc1NCCO [Compound 82, N-(Cyclopropylmethyl)-N-[[5-(2-hydroxyethylamino)-6-methyl-2-pyridyl]methyl]-4-(phenylsulfamoyl)benzamide]
microsomal CLint at 2 μM (Microsomal stability [1]): 221 µL/min/mg
Papp [5]: 0.6 ×10⁻⁶ cm/s
Caco-2 ER (Caco-2): 81
microsomal CLint at 2 μM (Microsomal stability [3]): 97 µL/min/mg

Cc1cc(CN(CC2CC2)C(=O)c2ccc(S(=O)(=O)Nc3ccccc3)cc2)ncc1NCCO [Compound 83, N-(Cyclopropylmethyl)-N-[[5-(2-hydroxyethylamino)-4-methyl-2-pyridyl]methyl]-4-(phenylsulfamoyl)benzamide]
microsomal CLint at 0.5 h, 2 µM (Microsomal stability [1]): 171 µL/min/mg
Papp [5]: 0.5 ×10⁻⁶ cm/s
microsomal CLint at 0.5 h, 2 µM (Microsomal stability [3]): 130 µL/min/mg

CN(c1ccccc1)S(=O)(=O)c1ccc(C(=O)N(Cc2ccc(NCCO)cn2)CC2CC2)cc1 [Compound 84, N-(Cyclopropylmethyl)-N-[[5-(2-hydroxyethylamino)-2-pyridyl]methyl]-4-[methyl(phenyl)sulfamoyl]benzamide]
microsomal CLint at 2 μM (Microsomal stability [1]): 409 µL/min/mg
Papp [5]: 5.7 ×10⁻⁶ cm/s
Caco-2 ER (Caco-2): 12
microsomal CLint at 2 μM (Microsomal stability [3]): 344 µL/min/mg

O=C(c1ccc(S(=O)(=O)Nc2ccccc2)cc1)N(Cc1ccc(OCCO)cc1)CC1CC1 [Compound 86, N-(Cyclopropylmethyl)-N-[[4-(2-hydroxyethoxy)phenyl]methyl]-4-(phenylsulfamoyl)benzamide]
microsomal CLint at 0.5 h, 2 µM (Microsomal stability [1]): 420 µL/min/mg
solubility at 24 h (Thermodynamic solubility): 6 µM (≈ 2.88 µg/mL)
Papp [5]: 15 ×10⁻⁶ cm/s
microsomal CLint at 0.5 h, 2 µM (Microsomal stability [3]): 119 µL/min/mg
IC50 [6]: 56.2 nM
fubrain [4]: 0.9%
fuplasma [4]: 1.4%

CCn1c(=O)c(-c2ccc(Cl)cc2Cl)cc2cnc(Nc3ccc(N4CCNCC4)c(F)c3)nc21 [FRAX486]
p-cofilin levels vs vehicle [7]: consistent reduction
